Experimental data from PubChem BioAssay (NCI).
Where “and” joins values, the source holds several entries; their conditions need not be identical. Equal values may be shown once.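 Values below derive from 48-hour exposures of cells grown in 96-well plates, with endpoints linearly interpolated between the two concentrations bracketing the appropriate inhibition level. The concentration for 50% growth inhibition is given as GI50. TGI marks complete inhibition of growth.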

Key:
Assay in all cases: NCI anticancer screen, dose series, 48 h
A549 NSCLC = tested on: A549 NSCLC
CAKI-1 renal = tested on: CAKI-1 renal
COLO 205 colon = tested on: COLO 205 colon
HCT-15 colon = tested on: HCT-15 colon
HS 578T breast = tested on: HS 578T breast
MOLT-4 leukemia = tested on: MOLT-4 leukemia
NCI-H522 lung = tested on: NCI-H522 lung
OVCAR-3 ovarian = tested on: OVCAR-3 ovarian
PC-3 prostate = tested on: PC-3 prostate
SNB-75 CNS = tested on: SNB-75 CNS
SR leukemia = tested on: SR leukemia
SW-620 colon = tested on: SW-620 colon
U251 CNS = tested on: U251 CNS
HL-60(TB) leukemia = tested on: HL-60(TB) leukemia
K-562 leukemia = tested on: K-562 leukemia
BT-549 breast = tested on: BT-549 breast

## COC(=O)C1CCC(=O)N1CN(C(C)=O)c1ccccc1Cl (stereo unspecified)
A549 NSCLC
  TGI: > 100 µM
CAKI-1 renal
  TGI: > 100 µM
COLO 205 colon
  TGI: > 100 µM
HCT-15 colon
  TGI: > 100 µM
HS 578T breast
  TGI: > 100 µM
MOLT-4 leukemia
  TGI: > 100 µM
NCI-H522 lung
  TGI: > 100 µM
OVCAR-3 ovarian
  TGI: > 100 µM
PC-3 prostate
  TGI: > 100 µM
SNB-75 CNS
  TGI: > 100 µM
SR leukemia
  TGI: > 100 µM
SW-620 colon
  TGI: > 100 µM
U251 CNS
  TGI: > 100 µM

## CC1=CC(=O)CC(C)(C)C1/C=C/C(C)=C/C=C/C(C)=C/C=C/C=C(C)/C=C/C=C(C)/C=C/C1C(C)=CC(=O)CC1(C)C (stereo unspecified)
CAKI-1 renal
  TGI: > 100 µM
HCT-15 colon
  TGI: 85 µM
HL-60(TB) leukemia
  TGI: > 100 µM
HS 578T breast
  TGI: > 100 µM
K-562 leukemia
  TGI: > 100 µM
MOLT-4 leukemia
  TGI: > 100 µM
NCI-H522 lung
  TGI: 52.1 µM
OVCAR-3 ovarian
  TGI: > 100 µM
PC-3 prostate
  TGI: > 100 µM
SR leukemia
  TGI: > 100 µM
SW-620 colon
  TGI: > 100 µM
U251 CNS
  TGI: > 100 µM

## O=c1c2cc(I)ccc2nc(SCc2nncs2)n1Cc1ccccc1
A549 NSCLC
  TGI: > 100 µM
BT-549 breast
  TGI: > 100 µM
COLO 205 colon
  TGI: > 100 µM
HCT-15 colon
  TGI: > 100 µM
HL-60(TB) leukemia
  TGI: > 100 µM
HS 578T breast
  TGI: 57.8 µM
K-562 leukemia
  TGI: > 100 µM
MOLT-4 leukemia
  TGI: > 100 µM
NCI-H522 lung
  TGI: 61 µM
OVCAR-3 ovarian
  TGI: > 100 µM
PC-3 prostate
  TGI: > 100 µM
SNB-75 CNS
  TGI: 74.9 µM
SR leukemia
  TGI: > 100 µM
SW-620 colon
  TGI: > 100 µM
U251 CNS
  TGI: > 100 µM

## CN(C)CCCN1C(=S)N(CCCN(C)C)c2c3ccccc3nc3c([N+](=O)[O-])ccc1c23
A549 NSCLC
  TGI: > 42.2 µM
BT-549 breast
  TGI: 36.4 µM
CAKI-1 renal
  TGI: 19.7 µM
COLO 205 colon
  TGI: 4.8 µM
HCT-15 colon
  TGI: 21.9 µM
HS 578T breast
  TGI: 41 µM
K-562 leukemia
  TGI: > 37.6 µM
MOLT-4 leukemia
  TGI: > 100 µM
NCI-H522 lung
  TGI: 10.5 µM
OVCAR-3 ovarian
  TGI: 24.4 µM
PC-3 prostate
  TGI: > 42.4 µM
SNB-75 CNS
  TGI: 23.1 µM
SW-620 colon
  TGI: 17.4 µM
U251 CNS
  TGI: 20.7 µM

## Nc1nc2c3nc(Nc4ccccc4)sc3nc(=S)n2c2sc(Nc3ccccc3)nc12
A549 NSCLC
  TGI: > 100 µM
COLO 205 colon
  TGI: > 100 µM
HCT-15 colon
  TGI: > 100 µM
HL-60(TB) leukemia
  TGI: > 100 µM
K-562 leukemia
  TGI: > 100 µM
NCI-H522 lung
  TGI: > 100 µM
SNB-75 CNS
  TGI: > 100 µM
SR leukemia
  TGI: > 100 µM
SW-620 colon
  TGI: > 100 µM
U251 CNS
  TGI: > 100 µM

## O=[N+]([O-])c1cccc2nc3ccccc3c(NCCCn3ccnc3[N+](=O)[O-])c12
CAKI-1 renal
  TGI: 0.0816 µM and 0.188 µM
HL-60(TB) leukemia
  TGI: 0.0168 µM and 0.0332 µM
HS 578T breast
  GI50: 0.0109 µM
  TGI: 0.0899 µM and 0.0415 µM
NCI-H522 lung
  TGI: 0.0167 µM and 0.0252 µM
OVCAR-3 ovarian
  GI50: 0.0122 µM
  TGI: 0.0178 µM and 0.0633 µM
PC-3 prostate
  TGI: 0.0236 µM
SNB-75 CNS
  TGI: 0.0775 µM
SR leukemia
  GI50: < 0.0001 µM
  TGI: 0.131 µM
SW-620 colon
  TGI: 0.103 µM
U251 CNS
  TGI: 0.00178 µM

## CC1(C)O[C@@H]([C@H](O)CO)[C@H](O)[C@@H](C2SCCCS2)O1
A549 NSCLC
  TGI: > 100 µM
BT-549 breast
  TGI: > 100 µM
CAKI-1 renal
  TGI: > 100 µM
COLO 205 colon
  TGI: > 100 µM
HCT-15 colon
  TGI: > 100 µM
OVCAR-3 ovarian
  TGI: > 100 µM
PC-3 prostate
  TGI: > 100 µM
SNB-75 CNS
  TGI: > 100 µM
SR leukemia
  TGI: > 100 µM
SW-620 colon
  TGI: > 100 µM
U251 CNS
  TGI: > 100 µM

## CCN(CC)C(=O)Cc1c(C(=O)N(CC)CC)c(=O)nc2sccn12
A549 NSCLC
  TGI: > 100 µM
COLO 205 colon
  TGI: > 100 µM
HCT-15 colon
  TGI: > 100 µM
HL-60(TB) leukemia
  TGI: > 100 µM
K-562 leukemia
  TGI: > 100 µM
MOLT-4 leukemia
  TGI: > 100 µM
NCI-H522 lung
  TGI: > 100 µM
OVCAR-3 ovarian
  TGI: > 100 µM
SNB-75 CNS
  TGI: > 100 µM
SR leukemia
  TGI: > 100 µM
SW-620 colon
  TGI: > 100 µM
U251 CNS
  TGI: > 100 µM

## O=C1C[C@H](c2ccccc2)O[C@@H](c2ccccc2)C1
A549 NSCLC
  TGI: > 100 µM
BT-549 breast
  TGI: > 100 µM
CAKI-1 renal
  TGI: > 100 µM
COLO 205 colon
  TGI: > 100 µM
HCT-15 colon
  TGI: > 100 µM
HS 578T breast
  TGI: > 100 µM
K-562 leukemia
  TGI: 72.3 µM
MOLT-4 leukemia
  TGI: > 100 µM
OVCAR-3 ovarian
  TGI: > 100 µM
PC-3 prostate
  TGI: > 100 µM
SNB-75 CNS
  TGI: > 100 µM
SW-620 colon
  TGI: > 100 µM
U251 CNS
  TGI: > 100 µM

## CCOC(=O)c1c[nH]c2c(Sc3ccccc3)nccc2c1=O
A549 NSCLC
  TGI: > 100 µM
BT-549 breast
  TGI: > 100 µM
CAKI-1 renal
  TGI: > 100 µM
COLO 205 colon
  TGI: > 100 µM
HCT-15 colon
  TGI: > 100 µM
HL-60(TB) leukemia
  TGI: 83.2 µM
HS 578T breast
  TGI: > 100 µM
MOLT-4 leukemia
  TGI: > 100 µM
NCI-H522 lung
  TGI: 74 µM
OVCAR-3 ovarian
  TGI: > 100 µM
PC-3 prostate
  TGI: > 100 µM
SNB-75 CNS
  TGI: > 100 µM
SW-620 colon
  TGI: > 100 µM
U251 CNS
  TGI: > 100 µM

## OC(c1ccc(F)cc1)C(F)(F)c1nc2ccccc2o1 (stereo unspecified)
BT-549 breast
  TGI: > 100 µM
CAKI-1 renal
  TGI: > 100 µM
COLO 205 colon
  TGI: > 100 µM
HCT-15 colon
  TGI: > 100 µM
HL-60(TB) leukemia
  TGI: > 100 µM
K-562 leukemia
  TGI: 82.3 µM
MOLT-4 leukemia
  TGI: > 100 µM
PC-3 prostate
  TGI: > 100 µM
SNB-75 CNS
  TGI: > 100 µM
SR leukemia
  TGI: > 100 µM
SW-620 colon
  TGI: > 100 µM
U251 CNS
  TGI: > 100 µM

## Cc1ccc(S(=O)(=O)NC(=O)NCCc2cnc[nH]2)cc1
A549 NSCLC
  TGI: > 100 µM
CAKI-1 renal
  TGI: > 100 µM
COLO 205 colon
  TGI: > 100 µM
HCT-15 colon
  TGI: > 100 µM
HL-60(TB) leukemia
  TGI: > 100 µM
HS 578T breast
  TGI: > 100 µM
K-562 leukemia
  TGI: > 100 µM
MOLT-4 leukemia
  TGI: > 100 µM
NCI-H522 lung
  TGI: > 100 µM
OVCAR-3 ovarian
  TGI: > 100 µM
PC-3 prostate
  TGI: > 100 µM
SNB-75 CNS
  TGI: > 100 µM
SR leukemia
  TGI: > 100 µM
SW-620 colon
  TGI: > 100 µM
U251 CNS
  TGI: > 100 µM

## N#Cc1nc(CCN2C(=O)c3ccccc3C2=O)oc1N
A549 NSCLC
  TGI: > 100 µM
BT-549 breast
  TGI: > 100 µM
CAKI-1 renal
  TGI: > 100 µM
COLO 205 colon
  TGI: > 100 µM
HCT-15 colon
  TGI: > 100 µM
HS 578T breast
  TGI: > 100 µM
K-562 leukemia
  TGI: > 100 µM
MOLT-4 leukemia
  TGI: > 100 µM
NCI-H522 lung
  TGI: > 100 µM
OVCAR-3 ovarian
  TGI: > 100 µM
PC-3 prostate
  TGI: > 100 µM
SR leukemia
  TGI: > 100 µM
SW-620 colon
  TGI: > 100 µM
U251 CNS
  TGI: > 100 µM

## S=c1[nH]nc(CNc2ccc(-c3n[nH]c(=S)n3-c3ccc(Cl)cc3)cc2)n1-c1ccc(Cl)cc1
A549 NSCLC
  TGI: > 100 µM
BT-549 breast
  TGI: > 100 µM
CAKI-1 renal
  TGI: 40.7 µM
COLO 205 colon
  TGI: 38.9 µM
HCT-15 colon
  TGI: > 100 µM
K-562 leukemia
  TGI: > 100 µM
MOLT-4 leukemia
  TGI: > 100 µM
NCI-H522 lung
  TGI: 48.5 µM
PC-3 prostate
  TGI: > 100 µM
SNB-75 CNS
  TGI: > 100 µM
SW-620 colon
  TGI: > 100 µM
U251 CNS
  TGI: > 100 µM

## CC(=O)C1=C(C)N2C(=NC3=C(CCc4ccccc43)C2c2ccc(F)cc2)S1 (stereo unspecified)
A549 NSCLC
  TGI: > 100 µM
BT-549 breast
  TGI: > 100 µM
COLO 205 colon
  TGI: > 100 µM
HL-60(TB) leukemia
  TGI: 92.4 µM
HS 578T breast
  TGI: > 100 µM
K-562 leukemia
  TGI: 90.4 µM
MOLT-4 leukemia
  TGI: 6.54 µM
OVCAR-3 ovarian
  TGI: > 100 µM
PC-3 prostate
  TGI: > 100 µM
SNB-75 CNS
  TGI: > 100 µM
SW-620 colon
  TGI: > 100 µM
U251 CNS
  TGI: > 100 µM

## CCc1n[nH]c(=O)n1/N=C/c1ccccc1O
A549 NSCLC
  TGI: > 100 µM
BT-549 breast
  TGI: > 100 µM
COLO 205 colon
  TGI: > 100 µM
HCT-15 colon
  TGI: > 100 µM
HS 578T breast
  TGI: 99 µM
K-562 leukemia
  TGI: > 100 µM
MOLT-4 leukemia
  TGI: > 100 µM
NCI-H522 lung
  TGI: > 100 µM
OVCAR-3 ovarian
  TGI: > 100 µM
PC-3 prostate
  TGI: > 100 µM
SNB-75 CNS
  TGI: > 100 µM
SR leukemia
  TGI: > 100 µM
SW-620 colon
  TGI: > 100 µM
U251 CNS
  TGI: > 100 µM

## CC(C)=CCC[C@@H](C)/C=C/C=C(\C)C(=O)CC[C@@H]1CC[N@+]2(C)CCCC[C@H]12
A549 NSCLC
  TGI: > 100 µM
BT-549 breast
  TGI: > 100 µM
CAKI-1 renal
  TGI: > 100 µM
COLO 205 colon
  TGI: > 100 µM
HCT-15 colon
  TGI: > 100 µM
HS 578T breast
  TGI: > 100 µM
K-562 leukemia
  TGI: > 100 µM
MOLT-4 leukemia
  TGI: > 100 µM
NCI-H522 lung
  TGI: > 100 µM
OVCAR-3 ovarian
  TGI: > 100 µM
PC-3 prostate
  TGI: > 100 µM
SNB-75 CNS
  TGI: > 100 µM
SR leukemia
  TGI: > 100 µM
SW-620 colon
  TGI: > 100 µM
U251 CNS
  TGI: > 100 µM
